Experimental data reported in PMC10564941, “A morpheein equilibrium regulates catalysis in phosphoserine phosphatase SerB2 from Mycobacterium tuberculosis” (Communications Biology, 2023).

What was measured:
[1] = molecular target: T1, MtSerB2 (phosphoserine phosphatase SerB2) (Mycobacterium tuberculosis, UniProt O53289); experiment: steady-state kinetics, malachite green phosphatase assay; SEC-UV/SAXS dimer-to-trimer shift; type: biochemical
T1 construct: full-length dimer fraction, His-tag cleaved
T1 sequence (O53289 whole entry): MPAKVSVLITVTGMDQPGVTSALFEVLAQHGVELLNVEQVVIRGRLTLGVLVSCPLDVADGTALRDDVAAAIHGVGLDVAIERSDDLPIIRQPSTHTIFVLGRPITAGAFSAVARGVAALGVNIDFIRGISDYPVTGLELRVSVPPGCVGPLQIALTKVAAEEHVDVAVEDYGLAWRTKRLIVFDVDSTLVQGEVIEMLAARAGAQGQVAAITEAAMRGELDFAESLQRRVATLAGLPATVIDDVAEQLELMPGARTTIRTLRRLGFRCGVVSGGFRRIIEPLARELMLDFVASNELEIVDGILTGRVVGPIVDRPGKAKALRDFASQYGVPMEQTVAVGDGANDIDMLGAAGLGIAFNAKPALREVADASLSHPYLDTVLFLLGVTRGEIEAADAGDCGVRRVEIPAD

[2] = test system: N[C@@H](COP(=O)(O)O)C(=O)O; experiment: purified protein; details: Mg2+ ([…] MgCl2 in assay) active site; uncompetitive substrate inhibition

Row | Compound | Ki [1] | Km [2]
1 | N[C@@H](CO)C(=O)O [L-Ser] | 22 ± 5.3 µM | –
2 | MtSerB2 (phosphoserine phosphatase SerB2) (Mycobacterium tuberculosis H37Rv) | – | 480 ± 170 µM
